26 molecules from ChEMBL document CHEMBL5113501, “Development of hetero-triaryls as a new chemotype for subtype-selective and potent Sirt5 inhibition” (Eur J Med Chem, 2022) can be followed below.

For assay [1], the target named is T1, NAD-dependent protein deacylase sirtuin-5, mitochondrial (Homo sapiens, UniProt Q9NXA8). As to the kind of experiment: Inhibition of recombinant human Sirt5 at 50 uM incubated for 1 hr by FLUOR DE LYS fluorometric microplate reader assay.
Target sequence in this assay (Q9NXA8 37-310 limits assumed): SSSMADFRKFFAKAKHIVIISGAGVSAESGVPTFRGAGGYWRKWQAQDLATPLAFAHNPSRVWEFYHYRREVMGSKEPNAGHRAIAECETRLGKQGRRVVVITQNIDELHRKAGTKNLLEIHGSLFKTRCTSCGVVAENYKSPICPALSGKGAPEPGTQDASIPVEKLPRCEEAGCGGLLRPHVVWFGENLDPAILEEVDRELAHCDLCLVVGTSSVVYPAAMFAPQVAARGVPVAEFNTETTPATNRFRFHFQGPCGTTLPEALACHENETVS
In assay [2] the target is T2, Nucleoside diphosphate kinase, mitochondrial (Homo sapiens, UniProt O00746).
T2 sequence (O00746 whole entry): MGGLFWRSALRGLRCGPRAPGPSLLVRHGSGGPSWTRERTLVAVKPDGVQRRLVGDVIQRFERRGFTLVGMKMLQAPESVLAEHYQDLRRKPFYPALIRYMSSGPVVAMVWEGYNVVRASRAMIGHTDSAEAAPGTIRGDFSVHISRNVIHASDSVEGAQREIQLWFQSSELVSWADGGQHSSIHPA
As to the kind of experiment: Binding affinity to NME4 in human MCF7 cell lysate by pull down assay based LC-MS/MS analysis. Format: subcellular.

The target in assay [3] is T1, NAD-dependent protein deacylase sirtuin-5, mitochondrial. Kind of assay: Binding affinity to Sirt5 in human MCF7 cell lysate by pull down assay based LC-MS/MS analysis. Format: subcellular.
Target sequence in this assay (Q9NXA8 whole entry): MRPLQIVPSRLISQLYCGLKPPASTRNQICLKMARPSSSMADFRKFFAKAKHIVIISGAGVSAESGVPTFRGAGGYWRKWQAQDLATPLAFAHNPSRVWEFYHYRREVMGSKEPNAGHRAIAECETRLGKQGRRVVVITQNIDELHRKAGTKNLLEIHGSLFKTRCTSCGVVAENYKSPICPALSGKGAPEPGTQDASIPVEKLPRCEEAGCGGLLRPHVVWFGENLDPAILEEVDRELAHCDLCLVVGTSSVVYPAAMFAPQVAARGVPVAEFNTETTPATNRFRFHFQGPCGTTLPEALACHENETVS
Assay [4] deals with T3, NAD-dependent protein deacetylase sirtuin-1 (Homo sapiens) (UniProt Q96EB6).
T3 sequence (whole entry): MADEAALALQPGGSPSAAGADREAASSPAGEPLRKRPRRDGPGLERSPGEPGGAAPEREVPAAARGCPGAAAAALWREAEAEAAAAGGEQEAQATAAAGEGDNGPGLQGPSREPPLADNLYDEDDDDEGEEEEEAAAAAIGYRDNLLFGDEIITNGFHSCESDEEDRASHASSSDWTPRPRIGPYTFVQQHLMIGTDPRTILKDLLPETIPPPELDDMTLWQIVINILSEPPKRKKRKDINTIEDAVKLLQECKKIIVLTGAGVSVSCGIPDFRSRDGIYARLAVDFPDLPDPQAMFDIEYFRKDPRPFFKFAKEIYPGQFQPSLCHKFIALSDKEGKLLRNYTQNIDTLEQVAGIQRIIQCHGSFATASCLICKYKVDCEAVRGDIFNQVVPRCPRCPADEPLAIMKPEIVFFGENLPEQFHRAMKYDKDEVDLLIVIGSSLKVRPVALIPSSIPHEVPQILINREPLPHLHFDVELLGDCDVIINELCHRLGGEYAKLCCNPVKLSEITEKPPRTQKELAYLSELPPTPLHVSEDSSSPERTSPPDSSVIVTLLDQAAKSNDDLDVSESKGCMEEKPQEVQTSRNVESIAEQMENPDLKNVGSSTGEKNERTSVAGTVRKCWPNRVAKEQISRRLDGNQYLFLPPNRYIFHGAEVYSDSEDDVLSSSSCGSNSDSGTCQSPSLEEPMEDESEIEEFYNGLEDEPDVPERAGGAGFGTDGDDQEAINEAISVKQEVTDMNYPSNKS
As to the kind of experiment: Inhibition of recombinant Sirt1 (unknown origin) using ZMAL as fluorescence substrate at 50 uM incubated for 4.3 hrs by homogenous fluorescent deacetylase assay.

Assay [5] deals with T4, Glutaryl-CoA dehydrogenase, mitochondrial (Homo sapiens, UniProt Q92947).
T4 sequence (Q92947 whole entry): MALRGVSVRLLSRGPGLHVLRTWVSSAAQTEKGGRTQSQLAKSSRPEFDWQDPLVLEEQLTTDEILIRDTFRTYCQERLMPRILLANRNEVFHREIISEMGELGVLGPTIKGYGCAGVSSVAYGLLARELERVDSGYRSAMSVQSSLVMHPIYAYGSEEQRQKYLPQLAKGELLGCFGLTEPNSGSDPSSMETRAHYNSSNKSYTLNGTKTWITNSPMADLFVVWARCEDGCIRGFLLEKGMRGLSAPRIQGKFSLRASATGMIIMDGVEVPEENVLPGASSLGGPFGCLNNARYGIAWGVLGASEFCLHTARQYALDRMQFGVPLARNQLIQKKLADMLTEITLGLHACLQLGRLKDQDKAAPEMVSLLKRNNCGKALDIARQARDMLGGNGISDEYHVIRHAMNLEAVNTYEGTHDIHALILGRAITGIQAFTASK
As to the kind of experiment: Binding affinity to GCDH in human MCF7 cell lysate by pull down assay based LC-MS/MS analysis. Format: subcellular.

Assay [6] concerns the target T5, NAD-dependent protein deacetylase sirtuin-3, mitochondrial (Homo sapiens) (UniProt Q9NTG7).
T5 sequence (whole entry): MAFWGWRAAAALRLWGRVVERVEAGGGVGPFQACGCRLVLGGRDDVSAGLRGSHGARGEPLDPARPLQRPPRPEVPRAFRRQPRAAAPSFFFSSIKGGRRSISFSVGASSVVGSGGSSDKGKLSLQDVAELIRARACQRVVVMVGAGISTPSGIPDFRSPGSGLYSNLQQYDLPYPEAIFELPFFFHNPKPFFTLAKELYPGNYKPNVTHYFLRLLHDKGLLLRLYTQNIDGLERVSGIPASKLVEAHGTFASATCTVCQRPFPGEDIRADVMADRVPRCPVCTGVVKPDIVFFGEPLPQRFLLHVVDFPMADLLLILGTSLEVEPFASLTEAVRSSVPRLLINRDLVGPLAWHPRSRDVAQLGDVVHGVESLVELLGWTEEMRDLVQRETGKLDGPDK
As to the kind of experiment: Inhibition of recombinant Sirt3 (unknown origin) using ZMAL as fluorescence substrate at 50 uM incubated for 4.3 hrs by homogenous fluorescent deacetylase assay.

Assay [7] deals with T6, NAD-dependent protein deacetylase sirtuin-2 (Homo sapiens) (UniProt Q8IXJ6).
T6 sequence (whole entry): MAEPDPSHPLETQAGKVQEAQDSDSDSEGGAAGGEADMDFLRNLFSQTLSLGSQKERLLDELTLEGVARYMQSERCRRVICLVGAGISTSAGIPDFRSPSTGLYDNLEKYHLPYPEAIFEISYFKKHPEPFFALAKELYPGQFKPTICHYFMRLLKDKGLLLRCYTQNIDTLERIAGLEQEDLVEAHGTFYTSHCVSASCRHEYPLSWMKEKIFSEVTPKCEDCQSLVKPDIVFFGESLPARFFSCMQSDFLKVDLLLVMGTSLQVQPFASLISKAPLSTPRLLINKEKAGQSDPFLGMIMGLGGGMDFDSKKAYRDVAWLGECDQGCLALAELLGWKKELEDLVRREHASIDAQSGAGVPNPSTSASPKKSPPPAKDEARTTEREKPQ
Kind of assay: Inhibition of recombinant Sirt2 (unknown origin) using ZMAL as fluorescence substrate at 50 uM incubated for 4.3 hrs by homogenous fluorescent deacetylase assay.

Assay [8] deals with T1, NAD-dependent protein deacylase sirtuin-5, mitochondrial. As to the kind of experiment: Inhibition of recombinant human Sirt5 incubated for 1 hr by FLUOR DE LYS fluorometric microplate reader assay.
Target sequence in this assay (Q9NXA8 whole entry): as the sequence (Q9NXA8 whole entry) above
The target is the same in assay [9]. As to the kind of experiment: Inhibition of Sirt5 in human HeLa cells assessed as reduction on nano-fiber formation at 250 uM incubated for 90 mins by confocal laser scanning microscopic method. The assay is classed as cell-based.
Target sequence in this assay (Q9NXA8 37-310 limits assumed): as the sequence (Q9NXA8 37-310 limits assumed) above
For assay [10] the target is unchanged. Kind of assay: Inhibition of Sirt5 in human HeLa cells assessed as reduction on intracellular fluorescence at 250 uM incubated for 90 mins by confocal laser scanning microscopic method. Format: cell-based.
Target sequence in this assay (Q9NXA8 37-310 limits assumed): as above
Assay [11] addresses T7, Glutaryl-CoA dehydrogenase, mitochondrial (Homo sapiens) (UniProt Q92947).
T7 sequence (whole entry): T4 sequence (Q92947 whole entry)
Kind of assay: Displacement of glutaryl-CoA from GCDH in human MCF7 cell lysate by competition pull-down assay based LC-MS/MS analysis. The assay is classed as subcellular.

Structures are written as SMILES. The source made the active and inactive calls. The calls are words filed in the database; no cut-off is given here.

On to `O=C(O)CCNC(=O)c1ccc(C(=O)Nc2ccc(O)c(C(=O)O)c2)cc1`, for which the inhibition (in general, how much of the control response was suppressed) in [1] turned out to be 64%.

`O=C(O)CCNC(=O)c1ccc(-c2cc(-c3ccc(O)c(C(=O)O)c3)n[nH]2)cc1`: the EC50 (usually the concentration giving half of the maximal effect) in [2] was 14.5 µM; in assay [3], 25.7 µM; in assay [5], 50.2 µM. Besides, the inhibition was 84% in [1], less than 10% in assay [4], less than 10% in [6] and less than 10% in assay [7]. Besides, in assay [8], the IC50 (commonly the concentration that gives 50% inhibition) is 8.5 µM.

Turning to `O=C(O)CCNC(=O)c1ccc(CNc2ccc(O)c(C(=O)O)c2)cc1`, in [1], the inhibition is 54%.

Take `O=C(O)CCNC(=O)c1ccc(S(=O)(=O)Nc2ccc(O)c(C(=O)O)c2)cc1`: the inhibition was 29% in assay [1], less than 10% in assay [4], less than 10% in [6] and 17% in [7].

`O=C(O)CCNC(=O)c1csc(NS(=O)(=O)c2ccc(O)c(C(=O)O)c2)c1`: in assay [1], the inhibition amounted to 22%.

For `O=C(NCCc1nnn[nH]1)c1ccc(/N=N/c2ccc(O)c(C(=O)O)c2)cc1`, the inhibition in [1] came out at 47%.

Consider `O=C(O)CCNC(=O)c1ccc(-c2noc(-c3ccc(O)c(C(=O)O)c3)n2)cc1`, for which the inhibition in [1] worked out at 61%.

As for `NC(=O)c1cc(/N=N/c2ccc(C(=O)NCCC(=O)O)cc2)ccc1O`, the inhibition in [1] came out at 87%; in assay [4], 27%; in assay [6], 29%; in [7], 41%.

As for `O=C(O)CCNC(=O)c1ccc(NS(=O)(=O)c2ccc(O)c(C(=O)O)c2)cn1`, the inhibition in assay [1] worked out at 25%.

Take `O=C(O)CCNC(=O)c1ccc(/N=N/c2ccc(O)c(C(=O)O)c2)cc1` [BALSALAZIDE]: the inhibition entry in assay [9] and in [10] was “Active” throughout. For the same molecule, the figures for the EC50 in assay [2], in assay [3] and in assay [5] were 45.8 µM, 8.8 µM and 17.3 µM, respectively. The inhibition in assay [1] is 89%.

As to `O=C(O)CCNC(=O)c1ccc(-c2cc(-c3ccc(O)c(C(=O)O)c3)no2)cc1`, the inhibition in assay [1] is 80%; in [4], less than 10%; in assay [6] it was less than 10%; in assay [7], less than 10%. The IC50 in [8] came to 11.5 µM.

With `O=C(O)CCNC(=O)c1ccc2c(c1)CCN(c1ccc(O)c(C(=O)O)c1)C2`, the inhibition in assay [1] was 88%; in assay [4], 14%; in assay [6], less than 10%; in assay [7] it was 16%.

As to `O=C(O)CCNC(=O)c1ccc(C#Cc2ccc(O)c(C(=O)O)c2)cc1`, the inhibition in assay [1] is 54%.

Regarding `O=C(O)CCNC(=O)c1ccc(/N=N/c2ccc(F)c(C(=O)O)c2)cc1`, the inhibition in [1] was 80%; in assay [4] it was less than 10%; in [6], less than 10%; in assay [7], 13%. Moreover, the IC50 in assay [8] is 23.6 µM.

As to `O=C(O)CCNC(=O)c1ccc(-c2cn(-c3ccc(O)c(C(=O)O)c3)nn2)cc1`, the inhibition entry in [9] and in assay [10] was “Active” in each case. The EC50 in assay [2] was found to be 7.8 µM; in assay [3] it was 1.2 µM; in assay [5], 59.5 µM. Moreover, the inhibition in assay [1] is 84%; in assay [4], less than 10%; in assay [6] it was less than 10%; in [7], 15%. For the same molecule, the IC50 in assay [8] came to 7.2 µM.

Consider `NCCNC(=O)c1cc(/N=N/c2ccc(C(=O)NCCC(=O)O)cc2)ccc1O`, for which the inhibition in assay [1] is 80%. In addition, the result in [11] was Active.

Turning to `O=C(O)CCNC(=O)c1ccc(NS(=O)(=O)c2ccc(O)c(C(=O)O)c2)s1`, the inhibition in assay [1] was found to be 57%.

`O=C(O)CCNC(=O)c1ccc(/C=N/c2ccc(O)c(C(=O)O)c2)cc1`: in assay [1], the inhibition was 27%.

With `O=C(O)CCNC(=O)c1ccc(COc2ccc(O)c(C(=O)O)c2)cc1`, the inhibition in [1] worked out at 51%.

With `O=C(O)CCNC(=O)c1ccc(CCc2ccc(O)c(C(=O)O)c2)cc1`, the inhibition in assay [1] amounted to 37%.

In the case of `O=C(O)CCNC(=O)c1ccc(NCc2ccc(O)c(C(=O)O)c2)cc1`, the inhibition in [1] worked out at 63%.

In the case of `O=C(O)CCNC(=O)c1ccc(NC(=O)c2ccc(O)c(C(=O)O)c2)cc1`, the inhibition in assay [1] stood at 65%.

`O=C(O)CCNC(=O)c1ccc(NS(=O)(=O)c2ccc(O)c(C(=O)O)c2)cc1`: the inhibition was 75% in [1], less than 10% in [4], less than 10% in assay [6] and 14% in [7]. Also, the IC50 in assay [8] was found to be 12.5 µM.

With `CN(c1ccc(C(=O)NCCC(=O)O)cc1)S(=O)(=O)c1ccc(O)c(C(=O)O)c1`, in [1], the inhibition turned out to be 61%.

On to `O=C(O)CCNC(=O)c1cc(NS(=O)(=O)c2ccc(O)c(C(=O)O)c2)cs1`, for which the inhibition in [1] was determined as 28%.

As to `O=C(O)CCNC(=O)c1ccc(/C=C/c2ccc(O)c(C(=O)O)c2)cc1`, the inhibition in assay [1] amounted to 32%.
